According to US20090054435A1, “Phenoxyalkanoic Acid Compound” (priority 2005, published 2009):

COc1ccc(C(=O)c2cccc(OCc3nc(-c4ccccc4)oc3C)c2)c(OCCOC(C)=O)c1 [Example 2, (5-methoxy-2-{3-[(5-methyl-2-phenyl-1,3-oxazol-4-yl)methoxy]benzoyl}phenoxy)ethyl acetate] gave a melting point of 90 to 91 °C.
In the case of COc1ccc(C(=O)c2cccc(OCc3nc(-c4ccccc4)oc3C)c2)c(OCC(=O)O)c1 [Example 4, (5-methoxy-2-{3-[(5-methyl-2-phenyl-1,3-oxazol-4-yl)methoxy]benzoyl}phenoxy)acetic acid], the melting point is reported as 198 to 199 °C.
COc1ccc(C(C)(O)c2cccc(OCc3nc(-c4ccccc4)oc3C)c2)c(OCCOC(C)=O)c1 (stereo not drawn) [Example 5, [2-(1-hydroxy-1-{3-[(5-methyl-2-phenyl-1,3-oxazol-4-yl)methoxy]phenyl}ethyl)-5-methoxyphenoxy]ethyl acetate] gave a melting point of 144 to 145 °C.
In the case of COc1ccc(C(C)(O)c2cccc(OCc3nc(-c4ccccc4)oc3C)c2)c(OCC(=O)O)c1 (stereo not drawn) [Example 6, [2-(1-hydroxy-1-{3-[(5-methyl-2-phenyl-1,3-oxazol-4-yl)methoxy]phenyl}ethyl)-5-methoxyphenoxy]acetic acid], the melting point is reported as 148 to 149 °C.
Work on CCOC(c1cccc(OCc2nc(-c3ccccc3)oc2C)c1)c1ccc(OC)cc1OCC(=O)O (stereo not drawn) [Example 7, [2-(ethoxy{3-[(5-methyl-2-phenyl-1,3-oxazol-4-yl)methoxy]phenyl}methyl)-5-methoxyphenoxy]acetic acid] yielded a melting point of 129 to 130 °C.
For Cc1oc(-c2ccccc2)nc1COc1ccc(C(=O)c2ccccc2OCC(=O)O)cc1 [Example 8, (2-{4-[(5-methyl-2-phenyl-1,3-oxazol-4-yl)methoxy]benzoyl}phenoxy)acetic acid], the melting point was 174 to 175 °C.
With Cc1oc(-c2ccccc2)nc1COc1ccc(C(=O)c2ccc(O)cc2OCC(=O)O)cc1 [Example 11, (5-hydroxy-2-{4-[(5-methyl-2-phenyl-1,3-oxazol-4-yl)methoxy]benzoyl}phenoxy)acetic acid] the melting point was 229 to 230 °C.
For CCOC(=O)COc1cc(O)ccc1C(=O)c1ccc(OCc2nc(-c3ccccc3)oc2C)cc1 [Example 12, ethyl (5-hydroxy-2-{4-[(5-methyl-2-phenyl-1,3-oxazol-4-yl)methoxy]benzoyl}phenoxy)acetate], the melting point was 184 to 186 °C.
With COc1ccc(C(=O)c2ccc(OCc3nc(-c4ccccc4)oc3C)cc2)c(OC(C)C(=O)O)c1 (stereo not drawn) [Example 13, 2-(5-methoxy-2-{4-[(5-methyl-2-phenyl-1,3-oxazol-4-yl)methoxy]benzoyl}phenoxy)propanoic acid] the melting point was 100 to 102 °C.
Compound COc1ccc(C(=O)c2ccc(OCc3nc(-c4ccccc4)oc3C)cc2)c(OCCC(=O)O)c1 [Example 15, 3-(5-methoxy-2-{4-[(5-methyl-2-phenyl-1,3-oxazol-4-yl)methoxy]benzoyl}phenoxy)propanoic acid] has a melting point of 142 to 143 °C.
Compound CCC(Oc1cc(OC)ccc1C(=O)c1ccc(OCc2nc(-c3ccccc3)oc2C)cc1)C(=O)O (stereo not drawn) [Example 17, 2-(5-methoxy-2-{4-[(5-methyl-2-phenyl-1,3-oxazol-4-yl)methoxy]benzoyl}phenoxy)butanoic acid] has a melting point of 161 to 162 °C.
With COc1ccc(C(=O)c2ccc(OCc3nc(-c4ccccc4)oc3C)cc2)c(OC(C(=O)O)C(C)C)c1 (stereo not drawn) [Example 18, 2-(5-methoxy-2-{4-[(5-methyl-2-phenyl-1,3-oxazol-4-yl)methoxy]benzoyl}phenoxy)-3-methylbutanoic acid] the melting point was 87 to 88 °C.
With COc1ccc(C(=O)c2ccc(OCc3nc(-c4ccccc4)oc3C)cc2)c(OC(F)(F)C(=O)O)c1 [Example 19, difluoro (5-methoxy-2-{4-[(5-methyl-2-phenyl-1,3-oxazol-4-yl)methoxy]benzoyl}phenoxy)acetic acid] the melting point was 166 to 167 °C.
With CCCC(Oc1cc(OC)ccc1C(=O)c1ccc(OCc2nc(-c3ccccc3)oc2C)cc1)C(=O)O (stereo not drawn) [Example 20, 2-(5-methoxy-2-{4-[(5-methyl-2-phenyl-1,3-oxazol-4-yl)methoxy]benzoyl}phenoxy)pentanoic acid] the melting point was 139 to 140 °C.
In the case of COc1ccc(C(=O)c2ccc(OCc3nc(-c4ccccc4)oc3C)cc2)c(OC2(C(=O)O)CCC2)c1 [Example 23, 1-(5-methoxy-2-{4-[(5-methyl-2-phenyl-1,3-oxazol-4-yl)methoxy]benzoyl}phenoxy)cyclobutanecarboxylic acid], the melting point is reported as 199 to 201 °C.
Work on COc1ccc(C(=O)c2ccc(OCc3nc(-c4ccccc4)sc3C)cc2)c(OC(C)(C)C(=O)O)c1 [Example 29, 2-(5-methoxy-2-{4-[(5-methyl-2-phenyl-1,3-thiazol-4-yl)methoxy]benzoyl}phenoxy)-2-methylpropanoic acid] yielded a melting point of 145 to 147 °C.
COc1ccc(C(=O)c2ccc(OCc3coc(-c4ccccc4)n3)cc2)c(OC(C)(C)C(=O)O)c1 [Example 32, 2-(5-methoxy-2-{4-[(2-phenyl-1,3-oxazol-4-yl)methoxy]benzoyl}phenoxy)-2-methylpropanoic acid] gave a melting point of 165 to 167 °C.
In the case of COc1ccc(C(=O)c2ccc(OCc3nc(-c4cccc(OS(C)(=O)=O)c4)oc3C)cc2)c(OC(C)(C)C(=O)O)c1 [Example 37, 2-{5-methoxy-2-[4-({5-methyl-2-[3-(methanesulfonyloxy)phenyl]-1,3-oxazol-4-yl}methoxy)benzoyl]phenoxy}-2-methylpropanoic acid], the melting point is reported as 182 to 183 °C.
In the case of COc1ccc(C(=O)c2ccc(OCCc3nc(-c4ccccc4)oc3C)cc2)c(OC(C)(C)C(=O)O)c1 [Example 38, 2-(5-methoxy-2-{4-[2-(5-methyl-2-phenyl-1,3-oxazol-4-yl)ethoxy]benzoyl}phenoxy)-2-methylpropanoic acid], the melting point is reported as 81 to 82 °C.
Work on COc1ccc(O[C@H](C)C(=O)O)c(C(=O)c2ccc(OCc3nc(-c4ccccc4)oc3C)cc2)c1 [Example 39, (2R)-2-(4-methoxy-2-{4-[(5-methyl-2-phenyl-1,3-oxazol-4-yl)methoxy]benzoyl}phenoxy)propanoic acid] yielded a melting point of 119 to 120 °C.
Work on COc1ccc(C(=O)c2ccc(OCc3ccccc3)nc2)c(OC(C)(C)C(=O)OC(C)(C)C)c1 [Example 45, tert-butyl 2-(2-{[6-(benzyloxy)pyridin-3-yl]carbonyl}-5-methoxyphenoxy)-2-methylpropanoate] yielded a melting point of 58 to 60 °C.
For COc1ccc(C(=O)c2ccc(Oc3ccccc3)nc2)c(OC(C)(C)C(=O)O)c1 [Example 51, 2-{5-methoxy-2-[(6-phenoxypyridin-3-yl)carbonyl]phenoxy}-2-methylpropanoic acid], the melting point was 167.5 to 168.5 °C.
COc1ccc(C(=O)c2ccc(OCc3nc(-c4ccccc4)oc3C)nc2)c(O[C@H](C)C(=O)O)c1 [Example 54, (2R)-2-[5-methoxy-2-({6-[(5-methyl-2-phenyl-1,3-oxazol-4-yl)methoxy]pyridin-3-yl}carbonyl)phenoxy]propanoic acid] gave a melting point of 164.5 to 165.5 °C.
For COc1ccc(C(=O)c2ccc(OCc3nc(-c4ccccc4)oc3C)cc2)c(O[C@@H](C)C(=O)O)c1 [Example 57, (2S)-2-(5-methoxy-2-{4-[(5-methyl-2-phenyl-1,3-oxazol-4-yl)methoxy]benzoyl}phenoxy)propanoic acid], the melting point was 169 to 170 °C.
